For assay [1], the system named is IgE response. The arrangement: species or system mice. The following applies: mouse, in vivo.
In assay [2] the test system is IgE response. The arrangement: species or system mice. The conditions noted are these: mouse, in vivo. The source holds these as a separate data set.
The test system of assay [3] is IgE response. Nature of the assay: Serum IgE titers after intranasal administration, HSA as antigen. The conditions noted are these: coadministration with HSA, mice, FIG. 4A. It counts as in vivo.
Assay [4] deals with naive splenocytes, T cell, B cell and non-T, non-B spleen cell populations. The assay is described as follows: IFN-γ production in vitro by spleen cell subpopulations. It counts as cell-based, CBA mice. Set-up: unit not given here. The text has this:
(§1) In this example, the types of cells responsive to the multimeric sugar conjugates, and the types of cytokines produced, either in vitro or in vivo, were investigated further. For the in vitro studies, naive splenocytes were isolated from CBA mice and fractionated into T cell, B cell and non-T, non-B spleen cell populations. B cell populations were defined by expression of the B220 surface marker (i.e., B220^+ cells). T cell populations were defined by expression of CD5 or Thy surface markers (i.e., CD5^+ or Thy+).

The subject of assay [5] is Human PBMCs. The assay is described as follows: IL-10 production by human PBMCs from allergic or cancer patients (ELISA). The conditions noted are these: 24 hours; LPS 20 μg/ml, HSA and conjugates 100 μg/ml. It counts as cell-based. The arrangement: unit not given here. The text has this:
(§2) Human PBMCs were obtained from: 1) an individual who was allergic to pollen; 2) an individual suffering from lung carcinoma and 3) an individual suffering from colon carcinoma.

Assay [6] has as its system Granuloma macrophages. It counts as cell-based, C57BL/6 mice.
Assay [7] deals with Human PBMCs. The assay is described as follows: Proliferation of human PBMCs from allergic or cancer patients (3H-thymidine uptake). It counts as cell-based. The following applies: 3H-thymidine uptake at 90 hours; LPS 20 μg/ml, HSA and conjugates 100 μg/ml.
Source text: as §2

Assay [8] deals with naive splenocytes, T cell, B cell and non-T, non-B spleen cell populations. Nature of the assay: IL-10 production in vitro by spleen cell subpopulations. The arrangement: unit not given here. The format is cell-based, CBA mice.
Source text: as §1

Setting [9] is: naive CBA splenocytes, unfractionated.

On to `CC(=O)N[C@H]1[C@H](O[C@H]2[C@@H](O)[C@@H](CO)O[C@@H](O[C@H]3[C@H](O)[C@@H](O)C(O)O[C@@H]3CO)[C@@H]2O)O[C@H](CO)[C@@H](O[C@@H]2O[C@H](CO)[C@H](O)[C@H](O)[C@H]2O)[C@@H]1O` (mixture of isomers) [free LNT, lacto-N-neotetraose], for which, in assay [1], the “inhibition of the SEA-specific IgE response (in words)” value is “significantly less effective than free LNFPIII” and the “inhibition of the total IgE response to SEA (in words)” value is given as “had a greater inhibitory effect”. Also, in assay [2], the “lowering of the total IgE response compared to administration of PLA2 alone” value was “not”.
As to lacto-N-fucopentaose III [free LNFPIII], in assay [1], the “inhibition of the SEA-specific IgE response (in words)” value is listed as “marked decrease in the antigen-specific IgE response” and the “inhibition of the total IgE response to SEA (in words)” value is reported as “only marginally inhibited”. Moreover, in assay [2], the “lowering of the total IgE response compared to administration of PLA2 alone” value is listed as “approximately 70%” and the “reduction of the PLA2-specific IgE response” value is recorded as “approximately 40%”. For the same compound, the “reduction in the levels of total IgE as compared to administration of HSA alone” value in assay [3] was “approximately 60%”.
For the compound lipopolysaccharide [LPS], in assay [4] (B220+ cells), the “IFN-γ, B cells (B220+)” value came to 0. Besides, in assay [4] (B220− cells), the “IFN-γ, Non-B (B220−)” value stood at 321. Moreover, the “IFN-γ, T cells (CD5+)” value in assay [4] (CD5+ cells) turned out to be 403. Also, in assay [4] (CD5− cells), the “IFN-γ, Non-T (CD5−)” value came to 0. The “IFN-γ, T cells (Thy+)” value in assay [4] (Thy+ cells) was found to be 617. For the same compound, in assay [4] (Thy− cells), the “IFN-γ, Non-T (Thy−)” value is reported as 0. Further, in assay [4] (setting [9]), the “IFN-γ, Total Spleen” value stood at 47. For the same compound, in assay [5], the “IL-10, COLON CARCINOMA” value stood at 8221; the “IL-10, LUNG CARCINOMA” value was 1400; the “IL-10, POLLEN ALLERGIC” value was 906. In addition, in assay [6], the “IL-10 LEVEL 24 HR” value amounted to 7864 pg/mL, the “IL-10 LEVEL 48 HR” value came out at 6559 pg/mL and the “IL-10 LEVEL 72 HR” value was determined as 4555 pg/mL. For the same compound, in assay [7], the “CPM, COLON CARCINOMA” value is 222 CPM; the “CPM, LUNG CARCINOMA” value is 232 CPM; the “CPM, POLLEN ALLERGIC” value turned out to be 1946 CPM. Further, in assay [8] (B220+ cells), the “IL-10, B cells (B220+)” value came out at 552. Moreover, the “IL-10, Non-B (B220−)” value in assay [8] (B220− cells) is listed as 320. The “IL-10, T cells (CD5+)” value in assay [8] (CD5+ cells) amounted to 264. The “IL-10, Non-T (CD5−)” value in assay [8] (CD5− cells) was determined as 430. In addition, in assay [8] (Thy+ cells), the “IL-10, T cells (Thy+)” value is recorded as 72. Moreover, the “IL-10, Non-T (Thy−)” value in assay [8] (Thy− cells) was found to be 430. Further, in assay [8] (setting [9]), the “IL-10, Total Spleen” value was 535.
With phospholipase A2 [PLA2], in assay [2], the “PLA2-specific IgE response elicited (in words)” value is reported as “elicits a strong PLA2-specific IgE response” and the “total IgE response elicited (in words)” value is reported as “elicits a strong total IgE response”.

The values above are taken from US6540999B1, “Immunomodulatory methods using Lewisx oligosacchardies” (President and Fellows of Harvard College, priority 1996, dated 2003).
